The subject of assay [1] is HeLa human cervical tumor cells. As to the kind of experiment: Proliferation assay (HeLa cell line). Type of assay: cell-based. The settings on record: 96 h, 4 days incubation, crystal violet, read-out: Biological Assay 2: Proliferation assay (HeLa cell line) median IC50. The protocol: Human tumour cells were originally obtained from the American Type Culture Collection (ATCC), the Deutsche Sammlung von Mikroorganismen und Zellkulturen (DSMZ, German Collection of Microorganisms and Cell Cultures), or Epo GmbH Berlin. Cultivated HeLa human cervical tumor cells (DSMZ ACC-57) were plated at a density of 3000 cells/well in a 96-well multititer plate in 200 μL of growth medium supplemented 10% fetal calf serum. After 24 hours, the cells of one plate (zero-point plate) were stained with crystal violet (see below), while the medium of the other plates was supplemented with the test substances in various concentrations (0 μM, as well as in the range of 0.001-10 μM; the final concentration of the solvent dimethyl sulfoxide was adjusted to 0.1%) using a Hewlett-Packard HP D300 Digital Dispenser. The cells were incubated for 4 days in the presence of test substances. […] After three washing cycles of the fixed cells with water, the plates were dried at room temperature. The cells were stained by adding 100 μL/measuring point of a 0.1% crystal violet solution (pH 3.0). After three washing cycles of the stained cells with water, the plates were dried at room temperature. The dye was dissolved by adding 100 μL/measuring point of a 10% acetic acid solution. […] The change of cell number, in percent, was calculated by normalization of the measured values to the absorption values of the zero-point plate (=0%) and the absorption of the untreated (0 μm) cells (=100%). The IC50 values were determined by means of a 4 parameter fit.

Assay [2] has as its system Bub1 kinase (histone 2A phosphorylation). As to the kind of experiment: H2A Formation-Assay (cell-based mechanistic assay, co-treatment with Nocodazole). The settings on record: 16 h, Nocodazole 1 μg/ml together with test compound for 16 h; read-out: Biological Assay 4.1: H2A Formation IC50. The protocol:
Biological Assay 4.1: Formation-Assay
Cell-Based Mechanistic Assay: Changes of Phosphorylation Status of Histone 2A by Inhibition of Kinase Activity of Bub1
This assay determines the suppression of histone 2A phosphorylation by a Bub1 kinase inhibitor during co-treatment with Nocodazole. 25000 cells (cells were ordered from ATCC) were seeded in 96 well plate for 5 h at 37° C. Cells were treated with Nocodazole (1 μg/ml) and varying concentrations (between 3 nM and 10 μM) of test compounds for 16h. Cells were fixed (20 min, Fixing solution R&D), washed three times with PBS and blocked with Odyssey blocking buffer before incubating with the primary antibody against phosphorylated H2A (5 μg/ml ABIN482721) overnight at […]. After washing, secondary IRDye-labeled antibody mix with cell stains was added for 1h and washed again with PBS. Plates were scanned with LiCor Odyssey Infrared Imager CLx at 800 nm for P-H2A and at 700 nm for cell stains Draq5/Sapphire. The quotient of 800 nm and 700 nm for Nocodazole only treated cells was set as 100% and the quotient of 800 nm and 700 nm of untreated cells was set as 0%. […] The IC50 values were determined by means of a 4 parameter fit.
(§1) Histone H2A is an immediate intracellular substrate of Bub1 kinase. Determination of the phosphorylation status of Histone H2A provides a direct measure of the intracellular activity of Bub1 kinase.

In assay [3] the test system is HeLa human cervical tumor cells. Nature of the assay: Proliferation Assay (HeLa+Paclitaxel). Type of assay: cell-based. The settings on record: 3 nM paclitaxel, test substance 92 hours; read-out: Biological Assay 3: Proliferation Assay (HeLa + Paclitaxel) IC50. The protocol: Proliferation Assay (HeLa+Paclitaxel):
Cultivated HeLa human cervical tumor cells (DSMZ ACC-57) were plated at a density of 3000 cells/well in a 96-well multititer plate in 200 μL of growth medium supplemented 10% fetal calf serum. After 24 hours, the cells of one plate (zero-point plate) were stained with crystal violet (see below). The medium of the other plates was supplemented with 3 nM of paclitaxel (Sigma-Aldrich) and the cells were incubated at 37° C. After 4 hours the test substances were added in various concentrations (0 μM, as well as in the range of 0.001-10 μM; the final concentration of the solvent dimethyl sulfoxide was adjusted to 0.1%) using a Hewlett-Packard HP D300 Digital Dispenser. The cells were incubated for another 92 hours at 37° C. in the presence of test substances. […] After three washing cycles of the fixed cells with water, the plates were dried at room temperature. The cells were stained by adding 100 μL/measuring point of a 0.1% crystal violet solution (pH 3.0). After three washing cycles of the stained cells with water, the plates were dried at room temperature. The dye was dissolved by adding 100 μL/measuring point of a 10% acetic acid solution. […] The change of cell number, in percent, was calculated by normalization of the measured values to the absorption values of the zero-point plate (=0%) and the 5 absorption of the untreated (0 μm) cells (=100%). The IC50 values were determined by means of a 4 parameter fit.

In assay [4] the test system is Bub1 kinase (pre-induced phospho-histone 2A). As to the kind of experiment: H2A Abrogation-Assay (cell-based mechanistic assay, pre-treatment with Nocodazole). The settings on record: Nocodazole 1 μg/ml 16 h, then test compound 1 h; read-out: Biological Assay 4.2: H2A Abrogation IC50. The protocol: Biological Assay 4.2: Abrogation-Assay
Cell-Based Mechanistic Assay: Changes of Phosphorylation Status of Pre-Induced Phospho-Histone 2A by Inhibition of Kinase Activity of Bub1
This assay measures the inhibition of histone 2A phosphorylation, which was induced by pre-treatment of the cells with Nocodazole, by a Bub1 kinase inhibitor. 25000 cells (cells were ordered from ATCC) were seeded in 96 well plate for 5 h at 37° C. Cells were treated with Nocodazole (1 μg/ml). After 16h varying concentrations (between 3 nM and 10 μM) of test compounds were added and the cells were incubated for another 1h. Cells were fixed (20 min, Fixing solution R&D), washed three times with PBS and blocked with Odyssey blocking buffer before incubating with the primary antibody against phosphorylated H2A (5 μg/ml ABIN482721) overnight at 2-8° C. After washing, secondary IRDye-labeled antibody mix with cell stains was added for 1h and washed again with PBS. Plates were scanned with LiCor Odyssey Infrared Imager CLx at 800 nm for P-H2A and at 700 nm for cell stains Draq5/Sapphire. The quotient of 800 nm and 700 nm for Nocodazole only treated cells was set as 100% and the quotient of 800 nm and 700 nm of untreated cells was set as 0%. […] The IC50 values were determined by means of a 4 parameter fit.
as §1

Assay [5] deals with T1, catalytic domain of human Bub1 (amino acids 704-1085) (Homo sapiens, UniProt O43683).
T1 construct: catalytic domain of human Bub1 (amino acids 704-1085); His6 (N); made in house; host or cells: Hi5 insect cells
T1 sequence (O43683 704-1085): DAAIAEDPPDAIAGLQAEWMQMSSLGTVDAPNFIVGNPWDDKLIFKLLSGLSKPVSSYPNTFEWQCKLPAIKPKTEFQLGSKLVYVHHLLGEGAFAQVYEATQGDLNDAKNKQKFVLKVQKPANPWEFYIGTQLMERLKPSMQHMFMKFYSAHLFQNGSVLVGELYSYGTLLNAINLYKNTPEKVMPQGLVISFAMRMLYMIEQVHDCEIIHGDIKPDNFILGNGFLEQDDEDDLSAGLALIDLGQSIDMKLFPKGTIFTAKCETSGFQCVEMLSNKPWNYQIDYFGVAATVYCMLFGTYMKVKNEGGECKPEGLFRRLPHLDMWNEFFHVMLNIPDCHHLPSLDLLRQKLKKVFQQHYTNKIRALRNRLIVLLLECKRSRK
As to the kind of experiment: Bub1 kinase assay (TR-FRET). The settings on record: 10 μM ATP, 60 min reaction, pH 7.5; read-out: Biological Assay 1: Bub1 kinase assay median IC50. Type of assay: biochemical. The protocol: To this end, 100-fold concentrated compound solutions (in DMSO) were previously prepared by serial dilution (1:3.4) of 2 mM stocks in a clear low volume 384-well source microtiter plate (Greiner Bio-One, Frickenhausen, Germany), from which 50 nL of compounds were transferred into a black low volume test microtiter plate from the same supplier. […] The resulting mixture (5 μL final volume) was incubated at 22° during 60 min., and the reaction was stopped by the addition of 5 μL of an aqueous EDTA-solution (50 mM EDTA, in 100 mM HEPES pH 7.5 and 0.2% (w/v) bovine serum albumin) which also contained the TR-FRET detection reagents (0.2 μM streptavidin-XL665 [Cisbio Bioassays, Codolet, France] and 1 nM anti-phosho-Serine antibody [Merck Millipore, cat. #35-001] and 0.4 nM LANCE EU-W1024 labeled anti-mouse IgG antibody [Perkin-Elmer, product no. AD0077, alternatively a Terbium-cryptate-labeled anti-mouse IgG antibody from Cisbio Bioassays can be used]). The stopped reaction mixture was further incubated 1 h at 22° C. in order to allow the formation of complexes between peptides and detection reagents. Subsequently, the amount of product was evaluated by measurement of the resonance energy transfer from the Eu-chelate-antibody complex recognizing the Phosphoserine residue to the streptavidin-XL665 bound to the biotin moiety of the peptide. […] IC50 values were calculated by fitting the normalized inhibition data to a 4-parameter logistic equation (Minimum, Maximum, IC50, Hill; Y=Max+(Min−Max)/(1+(X/IC50)Hill)).
On the technique in general: In TR-FRET formats the signal depends on donor and acceptor labels being close together.

IC50 data for 9 molecules are collected here from US10350206B2, “Benzyl substituted indazoles as BUB1 inhibitors” (Bayer Pharma Aktiengesellschaft, priority 2014, dated 2019).

pIC50: −log10 of the molar value. A value given as a limit tells only on which side of the number the result lay.

For the molecule `COc1cnc(-c2nn(Cc3c(F)cc(OCCCO)cc3F)c3ccccc23)nc1Nc1cc(C)ncc1C` [Example 2-3-1, 3-{4-[(3-{4-[(2,5-dimethylpyridin-4-yl)amino]-5-methoxypyrimidin-2-yl}-1 H-indazol-1-yl)methyl]-3,5-difluorophenoxy}propan-1-ol], the pIC50 in assay [1] was below 5.00; in assay [2], 7.42; in assay [3] it was 7.14; in assay [4], 9.14; in assay [5], 7.82.
The like results for `COc1cnc(-c2nn(Cc3c(F)cc(OCCCO)cc3F)c3ccccc23)nc1Nc1ccnc(C)n1` [Example 2-3-3, 3-{3,5-difluoro-4-[(3-{5-methoxy-4-[(2-methylpyrimidin-4-yl)amino]pyrimidin-2-yl}-1H-indazol-1-yl)methyl]phenoxy}propan-1-ol] were, in that order, below 5.00, 6.68, 6.70, 6.51 and 7.26.
As for `COc1cnc(-c2nn(Cc3c(F)cc(OC[C@H](C)CO)cc3F)c3ccccc23)nc1Nc1ccnc(C)n1` [Example 2-3-4, (2R)-3-{3,5-difluoro-4-[(3-{5-methoxy-4-[(2-methylpyrimidin-4-yl)amino]pyrimidin-2-yl}-1H-indazol-1-yl)methyl]phenoxy}-2-methylpropan-1-ol], the pIC50 was below 5.00 in assay [1]; 8.62 in assay [2]; 6.82 in assay [3]; 8.72 in assay [4]; 7.37 in assay [5].
As for `COc1cnc(-c2nn(Cc3c(F)cc(OC[C@H](C)CO)cc3F)c3ccccc23)nc1Nc1cc(C)ncc1C` [Example 2-3-5, (2R)-3-{4-[(3-{4-[(2,5-dimethylpyridin-4-yl)amino]-5-methoxypyrimidin-2-yl}-1H-indazol-1-yl)methyl]-3,5-difluorophenoxy}-2-methylpropan-1-ol], the pIC50 in assay [1] is 5.48; in assay [2] it was 8.70; in assay [3], 7.16; in assay [4], below 6.00; in assay [5], 7.24.
On the same counts, the results for `COc1cnc(-c2nn(Cc3c(F)cc(OC[C@H](C)CO)cc3F)c3ccccc23)nc1Nc1ccnc(NC(C)=O)c1` [Example 2-3-6, N-[4-({2-[1-(2,6-difluoro-4-{[(2R)-3-hydroxy-2-methylpropyl]oxy}benzyl)-1H-indazol-3-yl]-5-methoxypyrimidin-4-yl}amino)pyridin-2-yl]acetamide] are below 5.00, 7.28, 6.92, 9.57 and 7.72.
The like results for `COc1cnccc1Nc1nc(-c2nn(Cc3c(F)cc(OC[C@H](C)CO)cc3F)c3ccccc23)ncc1OC` [Example 2-3-7, (2R)-3-{3,5-difluoro-4-[(3-{5-methoxy-4-[(3-methoxypyridin-4-yl)amino]pyrimidin-2-yl}-1H-indazol-1-yl)methyl]phenoxy}-2-methylpropan-1-ol] were, in that order, 5.16, 7.20, 6.96, 9.51 and 7.55.
On the same counts, the results for `COc1cnc(-c2nn(Cc3c(F)cc(OCCCO)cc3F)c3ccccc23)nc1Nc1ccnc(C)c1` [Example 2-3-8, 3-{3,5-difluoro-4-[(3-{5-methoxy-4-[(2-methylpyridin-4-yl)amino]pyrimidin-2-yl}-1H-indazol-1-yl)methyl]phenoxy}propan-1-ol] are 5.59, below 6.00, 6.80, below 6.00 and 7.77.
In the case of `COc1cnc(-c2nn(Cc3c(F)cc(OCCO)cc3F)c3ccccc23)nc1Nc1ccncc1` [Example 6-1-1, 2-[3,5-difluoro-4-({3-[5-methoxy-4-(pyridin-4-ylamino)pyrimidin-2-yl]-1H-indazol-1-yl}methyl)phenoxy]ethanol, reference compound], the pIC50 in assay [1] was 5.49; in assay [2] it was 6.70; in assay [3], 6.37; in assay [4] it was 5.27; in assay [5], 8.21.
On the same counts, the results for `CCOc1cc(F)c(Cn2nc(-c3ncc(OC)c(Nc4ccncc4)n3)c3ccccc32)c(F)c1` [Example 6-4-1, 2-[1-(4-ethoxy-2,6-difluorobenzyl)-1 H-indazol-3-yl]-5-methoxy-N-(pyridin-4-yl)pyrimidin-4-amine, reference compound] are 5.62, 7.13, 6.18, 6.04 and 7.28.
